Drawing on ChEMBL document CHEMBL6120971 (J Med Chem, 2024), this text covers IC50, Activity and DC50 for 36 compounds.

The test system of assay [1] is MKN-45. The experiment in a line: Antiproliferative activity against human MKN-45 cells incubated for 72 hrs by CCK8 assay. It counts as functional, cell-based. The conditions noted are these: MKN-45, 72 h. For orientation: Formazan colour is commonly taken as a measure of viable cells.
The target of assay [2] is T1, von Hippel-Lindau disease tumor suppressor/Hepatocyte growth factor receptor (Homo sapiens, UniProt P08581+P40337). Nature of the assay: PROTAC activity at VHL/c-MET in human MKN-45 cells assessed as induction of c-MET degradation by measuring residual activity at 100 nM incubated for 24 hrs by Western blot analysis (reference value: 100 %). It counts as cell-based. For orientation: A western blot detects proteins with antibodies after separation by electrophoresis.
Target sequence in this assay (P40337 whole entry partner): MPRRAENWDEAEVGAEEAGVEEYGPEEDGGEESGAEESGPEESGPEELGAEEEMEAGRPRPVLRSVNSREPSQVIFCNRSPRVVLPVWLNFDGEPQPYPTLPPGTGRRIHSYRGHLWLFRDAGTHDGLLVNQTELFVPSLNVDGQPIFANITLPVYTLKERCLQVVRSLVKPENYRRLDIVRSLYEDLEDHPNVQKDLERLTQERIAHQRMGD
Target sequence in this assay (P08581 25-1390 limits assumed): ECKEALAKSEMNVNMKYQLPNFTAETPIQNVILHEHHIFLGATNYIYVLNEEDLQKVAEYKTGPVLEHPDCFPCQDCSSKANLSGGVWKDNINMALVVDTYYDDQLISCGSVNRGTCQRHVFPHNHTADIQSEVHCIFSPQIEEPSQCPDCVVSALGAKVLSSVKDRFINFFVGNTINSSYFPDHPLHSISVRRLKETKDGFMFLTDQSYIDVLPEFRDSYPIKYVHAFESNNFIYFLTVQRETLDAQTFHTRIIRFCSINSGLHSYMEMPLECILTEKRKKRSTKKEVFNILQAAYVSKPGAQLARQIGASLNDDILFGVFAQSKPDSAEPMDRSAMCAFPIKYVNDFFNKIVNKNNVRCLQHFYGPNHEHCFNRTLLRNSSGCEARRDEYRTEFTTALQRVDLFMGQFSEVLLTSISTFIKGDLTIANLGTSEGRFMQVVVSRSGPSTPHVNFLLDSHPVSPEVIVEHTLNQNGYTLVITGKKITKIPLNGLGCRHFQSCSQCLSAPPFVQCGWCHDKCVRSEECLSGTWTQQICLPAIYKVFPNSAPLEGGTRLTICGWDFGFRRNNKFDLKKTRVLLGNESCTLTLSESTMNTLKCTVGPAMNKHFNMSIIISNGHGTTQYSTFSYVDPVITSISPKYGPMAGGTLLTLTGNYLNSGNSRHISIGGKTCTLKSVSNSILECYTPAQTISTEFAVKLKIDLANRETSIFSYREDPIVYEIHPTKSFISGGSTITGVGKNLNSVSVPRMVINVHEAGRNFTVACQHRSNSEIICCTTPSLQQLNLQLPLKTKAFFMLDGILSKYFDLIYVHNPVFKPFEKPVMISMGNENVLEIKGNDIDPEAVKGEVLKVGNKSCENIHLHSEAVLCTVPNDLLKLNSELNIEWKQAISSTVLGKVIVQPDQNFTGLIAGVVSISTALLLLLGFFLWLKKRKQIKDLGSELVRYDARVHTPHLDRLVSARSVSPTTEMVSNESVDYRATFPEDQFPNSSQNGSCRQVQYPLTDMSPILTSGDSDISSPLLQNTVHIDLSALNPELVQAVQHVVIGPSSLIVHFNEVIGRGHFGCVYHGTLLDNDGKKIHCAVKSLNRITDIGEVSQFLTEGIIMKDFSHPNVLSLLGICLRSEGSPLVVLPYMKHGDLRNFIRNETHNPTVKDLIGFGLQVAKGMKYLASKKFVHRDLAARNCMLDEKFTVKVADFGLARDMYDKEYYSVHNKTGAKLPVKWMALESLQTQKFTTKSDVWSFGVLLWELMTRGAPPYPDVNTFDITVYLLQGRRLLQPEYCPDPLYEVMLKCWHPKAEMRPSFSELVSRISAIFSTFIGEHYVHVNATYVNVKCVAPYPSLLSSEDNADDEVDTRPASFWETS

Assay [3] relates to MKN-45. Nature of the assay: Induction of c-MET degradation in human MKN-45 cells assessed as residual activity at 100 nM incubated for 24 hrs by Western blot analysis (reference value: 100 %). The format is cell-based.
Assay [4] concerns the target T1, von Hippel-Lindau disease tumor suppressor/Hepatocyte growth factor receptor. Nature of the assay: PROTAC activity at VHL/c-MET in human MKN-45 cells assessed as induction of c-MET degradation at 100 to 1000 nM incubated for 24 hrs by Western blot analysis relative to control. It counts as cell-based. The conditions noted are these: dose 100-1000 nM.
Target sequence in this assay (P40337 whole entry partner): as the sequence (P40337 whole entry partner) above
Target sequence in this assay (P08581 25-1390 limits assumed): as the sequence (P08581 25-1390 limits assumed) above
Assay [5] concerns the target Protein cereblon/Hepatocyte growth factor receptor (Homo sapiens, UniProt P08581+Q96SW2). Nature of the assay: PROTAC activity at CRBN/c-MET in human MKN-45 cells assessed as induction of c-MET degradation at 1000 nM incubated for 24 hrs by Western blot analysis. It counts as cell-based.
Assay [6] concerns the target T1, von Hippel-Lindau disease tumor suppressor/Hepatocyte growth factor receptor. The experiment in a line: PROTAC activity at VHL/c-MET (unknown origin). The format is protein.
Target sequence in this assay (P08581 whole entry): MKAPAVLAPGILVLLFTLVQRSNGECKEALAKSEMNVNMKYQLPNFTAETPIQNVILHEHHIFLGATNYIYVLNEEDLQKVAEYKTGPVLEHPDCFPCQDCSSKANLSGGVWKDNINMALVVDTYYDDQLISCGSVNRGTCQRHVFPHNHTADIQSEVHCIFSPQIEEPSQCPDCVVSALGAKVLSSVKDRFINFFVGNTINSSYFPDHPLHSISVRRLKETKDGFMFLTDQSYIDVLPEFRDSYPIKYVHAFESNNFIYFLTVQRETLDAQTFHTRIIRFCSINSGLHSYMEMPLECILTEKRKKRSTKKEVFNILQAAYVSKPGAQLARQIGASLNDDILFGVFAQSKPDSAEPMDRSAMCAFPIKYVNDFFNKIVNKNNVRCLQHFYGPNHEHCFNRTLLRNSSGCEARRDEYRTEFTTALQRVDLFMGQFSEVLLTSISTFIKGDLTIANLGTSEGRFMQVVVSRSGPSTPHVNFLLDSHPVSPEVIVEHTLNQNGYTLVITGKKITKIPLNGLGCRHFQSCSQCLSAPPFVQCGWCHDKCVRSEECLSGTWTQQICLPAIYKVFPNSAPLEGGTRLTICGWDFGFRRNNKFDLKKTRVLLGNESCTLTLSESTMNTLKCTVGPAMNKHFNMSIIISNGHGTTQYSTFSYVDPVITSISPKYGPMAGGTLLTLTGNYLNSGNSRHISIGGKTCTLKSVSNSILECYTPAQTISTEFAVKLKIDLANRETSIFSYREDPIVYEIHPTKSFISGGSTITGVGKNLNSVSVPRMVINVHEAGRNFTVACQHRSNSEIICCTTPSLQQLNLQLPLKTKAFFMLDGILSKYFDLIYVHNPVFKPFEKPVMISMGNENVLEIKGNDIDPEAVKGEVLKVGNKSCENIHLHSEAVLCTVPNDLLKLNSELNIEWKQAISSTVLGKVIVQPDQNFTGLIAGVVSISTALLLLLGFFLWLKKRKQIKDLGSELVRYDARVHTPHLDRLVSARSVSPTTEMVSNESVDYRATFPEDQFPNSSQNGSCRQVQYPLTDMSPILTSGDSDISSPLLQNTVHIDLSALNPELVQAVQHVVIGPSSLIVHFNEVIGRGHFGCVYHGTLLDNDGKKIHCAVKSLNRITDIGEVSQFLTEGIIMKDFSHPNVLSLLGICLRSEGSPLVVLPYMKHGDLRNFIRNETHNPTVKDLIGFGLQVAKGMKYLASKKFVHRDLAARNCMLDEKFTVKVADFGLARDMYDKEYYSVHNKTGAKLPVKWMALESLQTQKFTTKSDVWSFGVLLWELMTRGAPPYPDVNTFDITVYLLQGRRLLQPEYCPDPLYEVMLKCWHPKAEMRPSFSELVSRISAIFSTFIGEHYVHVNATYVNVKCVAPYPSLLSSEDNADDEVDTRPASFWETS
Target sequence in this assay (P40337 whole entry): as the sequence (P40337 whole entry partner) above

The source made the active and inactive calls. No cut-off for these calls is given here.

Sequence of Protein cereblon/Hepatocyte growth factor receptor (P08581 25-1390 limits assumed): as the sequence (P08581 25-1390 limits assumed) above
Sequence of Protein cereblon/Hepatocyte growth factor receptor (Q96SW2 whole entry partner): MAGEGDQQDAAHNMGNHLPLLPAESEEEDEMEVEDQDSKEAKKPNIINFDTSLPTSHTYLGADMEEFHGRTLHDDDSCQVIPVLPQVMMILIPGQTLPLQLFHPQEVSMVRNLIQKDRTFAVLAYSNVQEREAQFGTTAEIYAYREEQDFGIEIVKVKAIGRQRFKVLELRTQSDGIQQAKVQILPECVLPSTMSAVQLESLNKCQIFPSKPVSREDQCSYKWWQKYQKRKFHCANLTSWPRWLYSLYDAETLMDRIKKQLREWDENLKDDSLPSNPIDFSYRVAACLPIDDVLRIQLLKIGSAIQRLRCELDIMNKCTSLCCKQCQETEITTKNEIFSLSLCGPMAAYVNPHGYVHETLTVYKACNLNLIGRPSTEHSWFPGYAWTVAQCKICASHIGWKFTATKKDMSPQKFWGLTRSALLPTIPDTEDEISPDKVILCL

One may read the IC50 as the concentration that inhibits the measured activity by half. A higher IC50 goes with lower potency. In the assay on MKN-45 [1], `Cc1ncsc1-c1ccc([C@H](C)NC(=O)[C@@H]2C[C@@H](O)CN2C(=O)[C@@H](NC(=O)CCCCCCCCCCNC(=O)c2ccc(-c3cnc4ncc(Cc5ccc6ncccc6c5)n4n3)cc2F)C(C)(C)C)cc1` displayed a half-maximal inhibitory concentration (IC50) of 47.8 nM.
Still for that read-out and setting: the value for `Cc1ncsc1-c1ccc([C@H](C)NC(=O)[C@@H]2C[C@@H](O)CN2C(=O)[C@@H](NC(=O)CCCCCCNC(=O)c2ccc(-c3cnc4ncc(Cc5ccc6ncccc6c5)n4n3)cc2F)C(C)(C)C)cc1` was more than 200 nM.
On to `Cc1ncsc1-c1ccc([C@H](C)NC(=O)[C@@H]2C[C@@H](O)CN2C(=O)[C@@H](NC(=O)CCOCCOCCC(=O)N2CCC(n3cc(-c4cnc(N)c(O[C@H](C)c5c(Cl)ccc(F)c5Cl)c4)cn3)CC2)C(C)(C)C)cc1`, for which the Activity in assay [2] is 107%.
The same measure, in the same setting: the value for `Cc1ncsc1-c1ccc([C@H](C)NC(=O)[C@@H]2C[C@@H](O)CN2C(=O)[C@@H](NC(=O)CCOCCOCCC(=O)N2CCC(COc3cnc(-c4cccc(Cn5nc(-c6cccc(C#N)c6)ccc5=O)c4)nc3)CC2)C(C)(C)C)cc1` was 66%.
Same read-out and setting: for `Cc1ncsc1-c1ccc([C@H](C)NC(=O)[C@@H]2C[C@@H](O)CN2C(=O)[C@@H](NC(=O)CCOCCOCCOCCC(=O)N2CCC(COc3cnc(-c4cccc(Cn5nc(-c6cccc(C#N)c6)ccc5=O)c4)nc3)CC2)C(C)(C)C)cc1` the value was 56%.
On to `Cc1ncsc1-c1ccc([C@H](C)NC(=O)[C@@H]2C[C@@H](O)CN2C(=O)[C@@H](NC(=O)CCCCC(=O)N2CCC(COc3cnc(-c4cccc(Cn5nc(-c6cccc(C#N)c6)ccc5=O)c4)nc3)CC2)C(C)(C)C)cc1`, for which the Activity in assay [2] was determined as 74%. For the same compound, in the assay on MKN-45 [1], the 50% inhibitory concentration (IC50) is more than 200 nM.
As for `Cc1ncsc1-c1ccc([C@H](C)NC(=O)[C@@H]2C[C@@H](O)CN2C(=O)[C@@H](NC(=O)CN2CCN(CCCCNC(=O)c3ccc(-c4cnc5ncc(Cc6ccc7ncccc7c6)n5n4)cc3F)CC2)C(C)(C)C)cc1`, in assay [2], the Activity came to 78%.
Regarding `Cc1ncsc1-c1ccc([C@H](C)NC(=O)[C@@H]2C[C@@H](O)CN2C(=O)[C@@H](NC(=O)CCCCCCC(=O)N2CCC(n3cc(-c4cnc(N)c(O[C@H](C)c5c(Cl)ccc(F)c5Cl)c4)cn3)CC2)C(C)(C)C)cc1`, in assay [2], the Activity amounted to 78%. Moreover, in the assay with MKN-45 [1], the half-maximal inhibitory concentration (IC50) is more than 200 nM.
As to `C[C@@H](Oc1cc(-c2cnn(C3CCNCC3)c2)cnc1N)c1c(Cl)ccc(F)c1Cl`, the Activity with MKN-45 [3] worked out at 110%.
For the compound `Cc1ncsc1-c1ccc([C@H](C)NC(=O)[C@@H]2C[C@@H](O)CN2C(=O)[C@@H](NC(=O)CN2CCN(CCCCCCNC(=O)c3ccc(-c4cnc5ncc(Cc6ccc7ncccc7c6)n5n4)cc3F)CC2)C(C)(C)C)cc1`, the Activity in assay [2] was 79%.
As to `Cc1ncsc1-c1ccc([C@H](C)NC(=O)[C@@H]2C[C@@H](O)CN2C(=O)[C@@H](NC(=O)CCOCCOCCOCCOCCC(=O)N2CCC(COc3cnc(-c4cccc(Cn5nc(-c6cccc(C#N)c6)ccc5=O)c4)nc3)CC2)C(C)(C)C)cc1`, the Activity in assay [2] was 62%.
For `CN1CCC(COc2cnc(-c3cccc(Cn4nc(-c5cccc(C#N)c5)ccc4=O)c3)nc2)CC1`, the Activity in the assay with MKN-45 [3] was 107%.
As for `Cc1ncsc1-c1ccc([C@H](C)NC(=O)[C@@H]2C[C@@H](O)CN2C(=O)[C@@H](NC(=O)CCCCCCCNC(=O)c2ccc(-c3cnc4ncc(Cc5ccc6ncccc6c5)n4n3)cc2F)C(C)(C)C)cc1`, the Activity was 19% in assay [2] and more than 80% in assay [4]. This compound gave an IC50 with MKN-45 [1] of 52.3 nM.
Regarding `Cc1ncsc1-c1ccc([C@H](C)NC(=O)[C@@H]2C[C@@H](O)CN2C(=O)[C@@H](NC(=O)CCCCCNC(=O)c2ccc(-c3cnc4ncc(Cc5ccc6ncccc6c5)n4n3)cc2F)C(C)(C)C)cc1`, the Activity in assay [2] was 68%. This compound also came in with an IC50 in the assay with MKN-45 [1] of 74.9 nM.
For the compound `Cc1ncsc1-c1ccc([C@H](C)NC(=O)[C@@H]2C[C@@H](O)CN2C(=O)[C@@H](NC(=O)CCCCCCCCNC(=O)c2ccc(-c3cnc4ncc(Cc5ccc6ncccc6c5)n4n3)cc2F)C(C)(C)C)cc1`, half-maximal inhibition in the assay with MKN-45 [1] (IC50) required 44.7 nM.
As to `Cc1ncsc1-c1ccc([C@H](C)NC(=O)[C@@H]2C[C@@H](O)CN2C(=O)[C@@H](NC(=O)COCCOCCNC(=O)c2ccc(-c3cnc4ncc(Cc5ccc6ncccc6c5)n4n3)cc2F)C(C)(C)C)cc1`, in assay [2], the Activity is 70%.
For `Cc1ncsc1-c1ccc([C@H](C)NC(=O)[C@@H]2C[C@@H](O)CN2C(=O)[C@@H](NC(=O)CCCCCCCCCNC(=O)c2ccc(-c3cnc4ncc(Cc5ccc6ncccc6c5)n4n3)cc2F)C(C)(C)C)cc1`, the Activity in assay [2] was found to be 22%. In the assay on MKN-45 [1], this compound came in with a half-inhibitory concentration (IC50) of 20.5 nM.
For `Cc1ncsc1-c1ccc([C@H](C)NC(=O)[C@@H]2C[C@@H](O)CN2C(=O)[C@@H](NC(=O)CCCCC(=O)N2CCC(n3cc(-c4cnc(N)c(O[C@H](C)c5c(Cl)ccc(F)c5Cl)c4)cn3)CC2)C(C)(C)C)cc1` the same measures were 100% and more than 200 nM.
`Cc1ncsc1-c1ccc([C@H](C)NC(=O)[C@@H]2C[C@@H](O)CN2C(=O)[C@@H](NC(=O)CN2CCN(CCCCCC(=O)N3CCC(COc4cnc(-c5cccc(Cn6nc(-c7cccc(C#N)c7)ccc6=O)c5)nc4)CC3)CC2)C(C)(C)C)cc1`: the Activity in assay [2] was found to be 71%.
With `O=C(COc1cccc2c1C(=O)N(C1CCC(=O)NC1=O)C2=O)NCCCCCCCCNC(=O)c1ccc(-c2cnc3ncc(Cc4ccc5ncccc5c4)n3n2)cc1F` (centres undefined), the outcome in assay [5] was inactive. The same compound gave a half-maximal inhibitory concentration (IC50) in the assay with MKN-45 [1] of 15.3 nM.
`Cc1ncsc1-c1ccc([C@H](C)NC(=O)[C@@H]2C[C@@H](O)CN2C(=O)[C@@H](NC(=O)CCCCCCC(=O)N2CCC(COc3cnc(-c4cccc(Cn5nc(-c6cccc(C#N)c6)ccc5=O)c4)nc3)CC2)C(C)(C)C)cc1`: the Activity in assay [2] is 64%. This compound also had a 50% inhibitory concentration (IC50) with MKN-45 [1] of 35.5 nM.
Take `Cc1ncsc1-c1ccc([C@H](C)NC(=O)[C@@H]2C[C@@H](O)CN2C(=O)[C@@H](NC(=O)CN2CCN(CCNC(=O)c3ccc(-c4cnc5ncc(Cc6ccc7ncccc7c6)n5n4)cc3F)CC2)C(C)(C)C)cc1`: in assay [2], the Activity is 61%.
Same read-out and setting: the value for `Cc1ncsc1-c1ccc([C@H](C)NC(=O)[C@@H]2C[C@@H](O)CN2C(=O)[C@@H](NC(=O)CCOCCOCCOCCC(=O)N2CCC(n3cc(-c4cnc(N)c(O[C@H](C)c5c(Cl)ccc(F)c5Cl)c4)cn3)CC2)C(C)(C)C)cc1` was 106%; that for `Cc1ncsc1-c1ccc([C@H](C)NC(=O)[C@@H]2C[C@@H](O)CN2C(=O)[C@@H](NC(=O)CCOCCOCCOCCOCCC(=O)N2CCC(n3cc(-c4cnc(N)c(O[C@H](C)c5c(Cl)ccc(F)c5Cl)c4)cn3)CC2)C(C)(C)C)cc1` was 127%.
On to `COc1cc2c(Oc3ccc(NC(=O)C4(C(=O)Nc5ccc(F)cc5)CC4)cc3F)ccnc2cc1OCCCOCCCOCCC(=O)N[C@H](C(=O)N1C[C@H](O)C[C@H]1C(=O)NCc1ccc(-c2scnc2C)cc1)C(C)(C)C`, for which, in assay [6], the DC50 is more than 10 nM.
Consider `O=C(COc1cccc2c1C(=O)N(C1CCC(=O)NC1=O)C2=O)NCCCCCCCCCCNC(=O)c1ccc(-c2cnc3ncc(Cc4ccc5ncccc5c4)n3n2)cc1F` (centres undefined), for which, in assay [5], the outcome was inactive. Besides, the IC50 with MKN-45 [1] is 27.3 nM.
On to `Cc1ncsc1-c1ccc([C@H](C)NC(=O)[C@@H]2C[C@@H](O)CN2C(=O)[C@@H](NC(=O)CN2CCN(CCCC(=O)N3CCC(n4cc(-c5cnc(N)c(O[C@H](C)c6c(Cl)ccc(F)c6Cl)c5)cn4)CC3)CC2)C(C)(C)C)cc1`, for which, in assay [2], the Activity was 111%.
With `Cc1ncsc1-c1ccc([C@H](C)NC(=O)[C@@H]2C[C@@H](O)CN2C(=O)[C@@H](NC(=O)CN2CCN(CCCCCC(=O)N3CCC(n4cc(-c5cnc(N)c(O[C@H](C)c6c(Cl)ccc(F)c6Cl)c5)cn4)CC3)CC2)C(C)(C)C)cc1`, the Activity in assay [2] stood at 115%.
Turning to `Cc1ncsc1-c1ccc([C@H](C)NC(=O)[C@@H]2C[C@@H](O)CN2C(=O)[C@@H](NC(=O)COCCOCCOCCOCCNC(=O)c2ccc(-c3cnc4ncc(Cc5ccc6ncccc6c5)n4n3)cc2F)C(C)(C)C)cc1`, the Activity in assay [2] was found to be 75%.
In the case of `Cc1ncsc1-c1ccc([C@H](C)NC(=O)[C@@H]2C[C@@H](O)CN2C(=O)[C@@H](NC(=O)CCCCCCCCCCC(=O)N2CCC(n3cc(-c4cnc(N)c(O[C@H](C)c5c(Cl)ccc(F)c5Cl)c4)cn3)CC2)C(C)(C)C)cc1`, the Activity in assay [2] turned out to be 73%. Moreover, the IC50 in the assay with MKN-45 [1] was more than 200 nM.
In the case of `Cc1ncsc1-c1ccc([C@H](C)NC(=O)[C@@H]2C[C@@H](O)CN2C(=O)[C@@H](NC(=O)CCCCCCCCCCC(=O)N2CCC(COc3cnc(-c4cccc(Cn5nc(-c6cccc(C#N)c6)ccc5=O)c4)nc3)CC2)C(C)(C)C)cc1`, the Activity in assay [2] amounted to 56%. This compound also came in with an IC50 in the assay with MKN-45 [1] of 149 nM.
On to `Cc1ncsc1-c1ccc([C@H](C)NC(=O)[C@@H]2C[C@@H](O)CN2C(=O)[C@@H](NC(=O)CN2CCN(CC(=O)N3CCC(COc4cnc(-c5cccc(Cn6nc(-c7cccc(C#N)c7)ccc6=O)c5)nc4)CC3)CC2)C(C)(C)C)cc1`, for which the Activity in assay [2] came out at 40%.
As for `Cc1ncsc1-c1ccc([C@H](C)NC(=O)[C@@H]2C[C@@H](O)CN2C(=O)[C@@H](NC(=O)CCCCCCCCCCCNC(=O)c2ccc(-c3cnc4ncc(Cc5ccc6ncccc6c5)n4n3)cc2F)C(C)(C)C)cc1`, in assay [2], the Activity was determined as 51%. In the assay with MKN-45 [1], this compound came in with an IC50 of 29.1 nM.
As to `Cc1ncsc1-c1ccc([C@H](C)NC(=O)[C@@H]2C[C@@H](O)CN2C(=O)[C@@H](NC(=O)COCCOCCOCCNC(=O)c2ccc(-c3cnc4ncc(Cc5ccc6ncccc6c5)n4n3)cc2F)C(C)(C)C)cc1`, the Activity in assay [2] worked out at 73%.
With `Cc1ncsc1-c1ccc([C@H](C)NC(=O)[C@@H]2C[C@@H](O)CN2C(=O)[C@@H](NC(=O)CN2CCN(CC(=O)N3CCC(n4cc(-c5cnc(N)c(O[C@H](C)c6c(Cl)ccc(F)c6Cl)c5)cn4)CC3)CC2)C(C)(C)C)cc1`, the Activity in assay [2] worked out at 123%.
In the case of `Cc1ncsc1-c1ccc([C@H](C)NC(=O)[C@@H]2C[C@@H](O)CN2C(=O)[C@@H](NC(=O)CN2CCN(CCCC(=O)N3CCC(COc4cnc(-c5cccc(Cn6nc(-c7cccc(C#N)c7)ccc6=O)c5)nc4)CC3)CC2)C(C)(C)C)cc1`, the Activity in assay [2] came to 61%.
